Results: patent US20090143417A1, “METHODS OF TREATING PAIN” (The University of Queensland, priority 2004, published 2009)

Tested on: naïve rats

CN1CC[C@]23c4c5ccc(O)c4O[C@H]2[C@@H](O)C=C[C@H]3[C@H]1C5 [morphine]
percent of the maximal pain relief effect (morphine ED20 dose 2.8 μmol/kg s.c. alone (FIG. 1)): 20% | pain relief from a noxious thermal stimulus using the tail flick test (morphine single bolus 10 μmol/kg s.c., at one hour, naïve rats (FIG. 1)): near maximal pain relief | ED20 of morphine (antinociception, tail flick) (s.c., naïve rats): ~2.8 µmol/kg | peak levels of antinociception, % of the maximum possible effect (single s.c. bolus administered alone: 2 at 0.04 nmol/kg, morphine at 2.8 μmol/kg): 21 % NPE
